Experimental data reported in ChEMBL document CHEMBL4610090, “Oleanolic Acid Ameliorates Benign Prostatic Hyperplasia by Regulating PCNA-Dependent Cell Cycle Progression In Vivo and In Vitro” (J Nat Prod, 2020).
Activity calls are given as the source filed them. The calls are words filed in the database; no cut-off is given here.

Legend:
[1] = tested on: Rattus norvegicus; test: Downregulation of prostate Bcl2 expression in Sprague-Dawley rat model of testosterone propionate-induced benign prostatic hyperplasia at 10 mg/kg, po by Western blot analysis; format: functional, organism-based
[2] = tested on: Rattus norvegicus; test: Suppression of serum DHT level in Sprague-Dawley rat model of testosterone propionate-induced benign prostatic hyperplasia at 10 mg/kg, po by ELISA; format: functional, organism-based
[3] = tested on: Rattus norvegicus; test: Suppression of 5-alpha reductase2 mRNA expression in Sprague-Dawley rat model of testosterone propionate-induced benign prostatic hyperplasia at 10 mg/kg, po by qRT-PCR method; format: functional, organism-based
[4] = tested on: Rattus norvegicus; test: Downregulation of prostate Bcl-xL expression in Sprague-Dawley rat model of testosterone propionate-induced benign prostatic hyperplasia at 10 mg/kg, po by Western blot analysis; format: functional, organism-based
[5] = tested on: Rattus norvegicus; test: Induction of PARP1 cleavage in prostate tissue of Sprague-Dawley rat model of testosterone propionate-induced benign prostatic hyperplasia at 10 mg/kg, po by Western blot analysis; format: functional, organism-based
[6] = tested on: Rattus norvegicus; test: Suppression of prostate tissue weight in Sprague-Dawley rat model of testosterone propionate-induced benign prostatic hyperplasia at 10 mg/kg, po relative to control; format: functional
[7] = tested on: BPH-1; test: Cytotoxicity against human BPH1 cells at 62.5 to 1000 uM by MTT assay; format: functional, cell-based
[8] = tested on: Rattus norvegicus; test: Downregulation of Cyclin E expression in prostate tissue of Sprague-Dawley rat model of testosterone propionate-induced benign prostatic hyperplasia at 1 to 10 mg/kg, ip by Western blot analysis; format: functional, organism-based
[9] = tested on: Rattus norvegicus; test: Downregulation of PCNA mRNA expression in prostate tissue of Sprague-Dawley rat model of testosterone propionate-induced benign prostatic hyperplasia at 10 mg/kg, ip by qRT-PCR method; format: functional
[10] = tested on: Rattus norvegicus; test: Suppression of serum DHT level in Sprague-Dawley rat model of testosterone propionate-induced benign prostatic hyperplasia at 1 to 10 mg/kg, ip by ELISA; format: functional, organism-based
[11] = Toxicity in Sprague-Dawley rat model of testosterone propionate-induced benign prostatic hyperplasia assessed as effect on animal health at 1 to 10 mg/kg, ip; format: organism-based; details: in vivo
[12] = tested on: Rattus norvegicus; test: Downregulation of PCNA expression in prostate tissue of Sprague-Dawley rat model of testosterone propionate-induced benign prostatic hyperplasia at 1 to 10 mg/kg, ip by Western blot analysis; format: functional, organism-based
[13] = tested on: Rattus norvegicus; test: Induction of PARP1 cleavage in prostate tissue of Sprague-Dawley rat model of testosterone propionate-induced benign prostatic hyperplasia at 10 mg/kg, ip by Western blot analysis; format: functional, organism-based
[14] = tested on: Rattus norvegicus; test: Downregulation of Cyclin D1 expression in prostate tissue of Sprague-Dawley rat model of testosterone propionate-induced benign prostatic hyperplasia at 1 to 10 mg/kg, ip by Western blot analysis; format: functional, organism-based
[15] = tested on: Rattus norvegicus; test: Downregulation of prostate Bcl-xL expression in Sprague-Dawley rat model of testosterone propionate-induced benign prostatic hyperplasia at 1 to 10 mg/kg, ip by Western blot analysis; format: functional, organism-based
[16] = tested on: BPH-1; test: Downregulation of PCNA expression in human BPH1 cells at 125 to 500 uM after 24 hrs by immunoblot analysis; format: functional, cell-based
[17] = tested on: Rattus norvegicus; test: Suppression of prostate tissue weight in Sprague-Dawley rat model of testosterone propionate-induced benign prostatic hyperplasia at 10 mg/kg, ip relative to control; format: functional
[18] = tested on: Rattus norvegicus; test: Downregulation of Cdk4 expression in prostate tissue of Sprague-Dawley rat model of testosterone propionate-induced benign prostatic hyperplasia at 1 to 10 mg/kg, ip by Western blot analysis; format: functional, organism-based
[19] = tested on: Rattus norvegicus; test: Suppression of prostate tissue weight in Sprague-Dawley rat model of testosterone propionate-induced benign prostatic hyperplasia at 1 mg/kg, ip relative to control; format: functional
[20] = Toxicity in Sprague-Dawley rat model of testosterone propionate-induced benign prostatic hyperplasia assessed as effect on body weight at 1 to 10 mg/kg, ip; format: organism-based; details: in vivo
[21] = tested on: Rattus norvegicus; test: Downregulation of PCNA […] expression in prostate tissue of Sprague-Dawley rat model of testosterone propionate-induced benign prostatic hyperplasia at 1 to 10 mg/kg, ip by immunohistochemical analysis; format: functional, organism-based
[22] = tested on: Rattus norvegicus; test: Downregulation of prostate Bcl2 expression in Sprague-Dawley rat model of testosterone propionate-induced benign prostatic hyperplasia at 1 to 10 mg/kg, ip by Western blot analysis; format: functional, organism-based
[23] = Toxicity in Sprague-Dawley rat model of testosterone propionate-induced benign prostatic hyperplasia assessed as behavioural changes at 1 to 10 mg/kg, ip; format: organism-based; details: in vivo
[24] = tested on: Rattus norvegicus; test: Suppression of prostate epithelial thickness in Sprague-Dawley rat model of testosterone propionate-induced benign prostatic hyperplasia at 1 mg/kg, ip by hematoxylin and eosin staining-based microscopic analysis relative to control; format: functional
[25] = tested on: Rattus norvegicus; test: Suppression of 5-alpha reductase2 mRNA expression in Sprague-Dawley rat model of testosterone propionate-induced benign prostatic hyperplasia at 1 to 10 mg/kg, ip by qRT-PCR method; format: functional, organism-based
[26] = tested on: Rattus norvegicus; test: Suppression of prostate epithelial thickness in Sprague-Dawley rat model of testosterone propionate-induced benign prostatic hyperplasia at 10 mg/kg, ip by hematoxylin and eosin staining-based microscopic analysis relative to control; format: functional
[27] = molecular target: Proliferating cell nuclear antigen (Homo sapiens) (UniProt P12004); test: Inhibition of PCNA-mediated cell cycle progression in human BPH-1 cells assessed as reduction in cyclin D level at 250 to 500 uM after 24 hrs by immunoblot analysis; format: cell-based
[28] = tested on: Rattus norvegicus; test: Downregulation of PCNA mRNA expression in prostate tissue of Sprague-Dawley rat model of testosterone propionate-induced benign prostatic hyperplasia at 1 mg/kg, ip by qRT-PCR method; format: functional
[29] = molecular target: Proliferating cell nuclear antigen (Homo sapiens) (UniProt P12004); test: Inhibition of PCNA-mediated cell cycle progression in human BPH-1 cells assessed as reduction in cdk4 level at 125 to 500 uM after 24 hrs by immunoblot analysis; format: cell-based
[30] = tested on: Rattus norvegicus; test: Downregulation of Cdk2 expression in prostate tissue of Sprague-Dawley rat model of testosterone propionate-induced benign prostatic hyperplasia at 1 to 10 mg/kg, ip by Western blot analysis; format: functional, organism-based

Chain of Proliferating cell nuclear antigen (Homo sapiens) (P12004 whole entry): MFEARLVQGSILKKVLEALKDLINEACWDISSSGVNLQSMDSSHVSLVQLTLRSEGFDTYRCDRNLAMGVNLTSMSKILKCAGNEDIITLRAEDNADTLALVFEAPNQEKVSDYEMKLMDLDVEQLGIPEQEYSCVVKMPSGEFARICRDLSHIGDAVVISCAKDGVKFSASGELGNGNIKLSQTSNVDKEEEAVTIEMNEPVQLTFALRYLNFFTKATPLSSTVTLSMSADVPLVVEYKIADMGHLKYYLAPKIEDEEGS

CC(C)(C)NC(=O)[C@H]1CC[C@H]2[C@@H]3CC[C@H]4NC(=O)C=C[C@]4(C)[C@H]3CC[C@]12C [FINASTERIDE]
Activity [1]: Active | Activity [2]: Active | inhibition [3]: Active | Activity [4]: Active | Activity [5]: Active | inhibition in vivo at 10 mg/kg [6]: 32.5%

CC1(C)CC[C@]2(C(=O)O)CC[C@]3(C)C(=CC[C@@H]4[C@@]5(C)CC[C@H](O)C(C)(C)[C@@H]5CC[C@]43C)[C@@H]2C1 [OLEANOLIC_ACID]
Activity [7]: Active | Activity [8]: Active | Activity [9]: 71.16% | inhibition [10]: Active | Activity [11]: Non-Toxic | Activity [12]: Active | Activity [13]: Active | Activity [14]: Active | Activity [15]: Active | Activity [16]: Active | inhibition in vivo at 10 mg/kg [17]: 31.2% | Activity [18]: Active | inhibition in vivo at 1 mg/kg [19]: 30.9% | Activity [20]: Non-Toxic | Activity [21]: Active | Activity [22]: Active | Activity [23]: Non-Toxic | inhibition in vivo at 1 mg/kg [24]: 48% | inhibition [25]: Active | inhibition in vivo at 10 mg/kg [26]: 54.8% | inhibition [27]: Active | Activity [28]: 54.89% | inhibition [29]: Active | Activity [30]: Active
